Laboratory results published in ChEMBL document CHEMBL4334448, “Chivosazole A Modulates Protein-Protein Interactions of Actin” (J Nat Prod, 2019).
The source made the active and inactive calls. No cut-off for these calls is given here.

Key:
[1] = molecular target: Actin, alpha skeletal muscle (Oryctolagus cuniculus) (UniProt P68135); assay: Inhibition of immobilized rabbit skeletal muscle alpha-actin interaction with cofilin at 56 uM pretreated for 30 mins followed by cofilin addition measured after 1 hr by pull-down assay
[2] = molecular target: Actin, alpha skeletal muscle (Oryctolagus cuniculus) (UniProt P68135); assay: Inhibition of immobilized rabbit skeletal muscle alpha-actin interaction with gelsolin at 12.5 uM pretreated for 30 mins followed by gelsolin addition measured after 1 hr by pull-down assay
[3] = molecular target: Actin, alpha skeletal muscle (Oryctolagus cuniculus) (UniProt P68135); assay: Inhibition of immobilized rabbit skeletal muscle alpha-actin interaction with profilin at 66.7 uM pretreated for 30 mins followed by profilin addition measured after 1 hr by pull-down assay
HUVEC [4] = assay: Inhibition of cell migration in human HUVEC cells assessed as decrease in cell velocity measured after 16 hrs by crystal violet staining based scratch assay; type: functional
[5] = molecular target: Actin, alpha skeletal muscle (Oryctolagus cuniculus) (UniProt P68135); assay: Binding affinity to immobilized rabbit skeletal muscle alpha-actin assessed as formation of G-actin dimers at 40 uM and pH 6.8 to 8 treated for 30 mins in absence of thymosin-beta4 by size-exclusion chromatography
[6] = molecular target: Actin, alpha skeletal muscle (Oryctolagus cuniculus, UniProt P68135); assay: (§1) Inhibition of rabbit skeletal muscle alpha-actin polymerization measured after 24 hrs in presence of ATP and fluorescent pyrene-labelled actin by fluorescence based assay
[7] = molecular target: Actin, alpha skeletal muscle (Oryctolagus cuniculus) (UniProt P68135); assay: as §1
[8] = molecular target: Actin, alpha skeletal muscle (Oryctolagus cuniculus) (UniProt P68135); assay: Inhibition of immobilized rabbit skeletal muscle alpha-actin interaction with thymosin-beta4 at 40 uM pretreated for 30 mins followed by thymosin-beta4 addition measured after 45 mins by cross-linking assay
[9] = molecular target: Actin, alpha skeletal muscle (Oryctolagus cuniculus) (UniProt P68135); assay: Inhibition of immobilized rabbit skeletal muscle alpha-actin interaction with thymosin-beta4 assessed as decrease in cross-linked complex formation at 40 uM pretreated for 30 mins followed by thymosin-beta4 addition measured after 45 mins by cross-linking assay
HUVEC [10] = assay: Antiproliferative activity against human HUVEC measured after 72 hrs; type: cell-based
[11] = molecular target: Actin, alpha skeletal muscle (Oryctolagus cuniculus) (UniProt P68135); assay: Inhibition of rabbit skeletal muscle alpha-actin nucleation at 500 nM to 5 uM in presence of Turkey gizzard alpha-actinin and […] fluorescent labelled actin by TIRF microscopy analysis
[12] = molecular target: Actin, alpha skeletal muscle (Oryctolagus cuniculus) (UniProt P68135); assay: Induction of rabbit skeletal muscle alpha-actin depolymerization assessed as destabilization of F-actin 5 uM measured every 15 sec for 90 mins in presence of Turkey gizzard alpha-actinin and […] fluorescent labelled actin by TIRF microscopy analysis
HUVEC [13] = assay: Induction of morphological changes in human HUVEC cells assessed as amorphous actin aggregation in nucleus incubated for 1 hr by Hoechst staining based fluorescence assay; type: functional, cell-based
HUVEC [14] = assay: Induction of morphological changes in human HUVEC cells assessed as disruption of F-actin fibers at 10 nM to 100 nM incubated for 1 hr by rhodamine-phalloidin staining based fluorescence assay; type: functional, cell-based
[15] = molecular target: Actin, alpha skeletal muscle (Oryctolagus cuniculus) (UniProt P68135); assay: Binding affinity to immobilized rabbit skeletal muscle alpha-actin assessed change in retention time of G-actin dimers at 40 uM and pH 6.8 to 8 treated for 30 mins in absence of thymosin-beta4 by size-exclusion chromatography
[16] = molecular target: Actin, alpha skeletal muscle (Oryctolagus cuniculus) (UniProt P68135); assay: Inhibition of rabbit skeletal muscle alpha-actin polymerization induced by Mg-ATP assessed as decrease in elongation rate at 500 nM to 5 uM measured every 1 sec for 5 mins in presence of Turkey gizzard alpha-actinin and […] fluorescent labelled actin by TIRF microscopy analysis

inhibition [11] | Activity [12] | Activity [15] | inhibition [16] | SMILES | inhibition [1] | inhibition [2] | inhibition [3] | IC50 (HUVEC [4]) [nM] | Activity [5] | IC50 [6] [µM] | inhibition [7] | inhibition [8] | Activity [9] | IC50 (HUVEC [10]) [nM] | Activity (HUVEC [13]) | Activity (HUVEC [14])
– | – | – | – | CO[C@@H]1C[C@@H](O)/C=C/C=C/C=C\[C@H](C)[C@@H]([C@@H](C)[C@@H](O)C[C@@H](C)O)OC(=O)\C=C/C=C/C=C\C(C)=C\[C@@H](C)[C@@H](O)/C=C\C=C\c2coc(n2)[C@@H]1C | Active | Active | Active | – | – | – | – | – | – | – | – | –
– | – | – | – | C/C1=C/C(=O)O[C@@H]2C[C@@H](CC[C@H](C)/C=C\CC1)O[C@@](O)([C@@H]1CSC(=O)N1)C2 [LATRUNCULIN B] | inactive | inactive | inactive | 478 | inactive | 8.47 | Dose-dependent effect | Active | Active | 612 | – | –
Active | Active | Active | Active | CO[C@H]1[C@H](O[C@H]2/C=C\C=C\c3coc(n3)[C@H](C)[C@H](OC)C[C@@H](O)/C=C/C=C/C=C\[C@H](C)[C@@H]([C@@H](C)[C@@H](O)C[C@@H](C)O)OC(=O)\C=C/C=C/C=C\C(C)=C\[C@H]2C)O[C@H](C)[C@@H](O)[C@@H]1OC | Active | Active | Active | 31.7 | Active | 15.2 | Dose-dependent effect | Active | Active | 2.98 to 3 | Active | Active
